Measurements from the CheMixHub viscosity set.
± gives the uncertainty stated by the source.

Experiment: xn = mol fraction of the nth substance listed

Cl + CCCCCCCO
298.15 K, 101 kPa
Details | viscosity [mPa·s]
x1 = 0.05 | 6.22 ± 0.2
x1 = 0.1 | 7.02 ± 0.22
x1 = 0.15 | 7.6 ± 0.23
x1 = 0.19 | 8.18 ± 0.24
x1 = 0.23 | 8.66 ± 0.26
x1 = 0.26 | 9.02 ± 0.27
x1 = 0.29 | 9.22 ± 0.27
x1 = 0.32 | 9.3 ± 0.27
x1 = 0.34 | 9.26 ± 0.27
x1 = 0.37 | 9.08 ± 0.27
x1 = 0.39 | 8.86 ± 0.26
x1 = 0.41 | 8.62 ± 0.26
x1 = 0.43 | 8.4 ± 0.25
x1 = 0.45 | 8.2 ± 0.25

CC(=O)Nc1ccccc1 + Nc1ccccc1
viscosity [mPa·s], 101.3 kPa
Details | 298.15 K | 323.15 K
x1 = 0.108 | 46.7 ± 1.2 | 23.6 ± 0.6
x1 = 0.195 | 113.4 ± 2.9 | 42.5 ± 1.1

CC(=O)OCCC(C)C + Brc1ccccc1
viscosity [mPa·s], 101 kPa
Details | 298.15 K | 303.15 K | 308.15 K | 313.15 K
x1 = 0.0443 | 1.026 ± 0.007 | – | 0.952 ± 0.006 | –
x1 = 0.0719 | – | 1.003 ± 0.012 | – | 0.883 ± 0.011
x1 = 0.1494 | 0.992 ± 0.006 | – | 0.925 ± 0.006 | –
x1 = 0.1499 | – | 0.991 ± 0.012 | – | 0.869 ± 0.011
x1 = 0.2334 | – | 0.974 ± 0.012 | – | 0.852 ± 0.011
x1 = 0.2513 | 0.962 ± 0.006 | – | 0.898 ± 0.006 | –
x1 = 0.3222 | – | 0.949 ± 0.012 | – | 0.828 ± 0.011
x1 = 0.3494 | 0.933 ± 0.006 | – | 0.875 ± 0.006 | –
x1 = 0.4137 | – | 0.921 ± 0.012 | – | 0.801 ± 0.011
x1 = 0.4478 | 0.908 ± 0.006 | – | 0.853 ± 0.006 | –
x1 = 0.4962 | 0.895 ± 0.006 | – | 0.842 ± 0.006 | –
x1 = 0.509 | – | 0.893 ± 0.012 | – | 0.774 ± 0.011
x1 = 0.5517 | 0.881 ± 0.006 | – | 0.83 ± 0.006 | –
x1 = 0.6182 | – | 0.859 ± 0.012 | – | 0.743 ± 0.011
x1 = 0.6512 | 0.857 ± 0.006 | – | 0.811 ± 0.006 | –
x1 = 0.7358 | – | 0.823 ± 0.011 | – | 0.711 ± 0.011
x1 = 0.7497 | 0.834 ± 0.006 | – | 0.792 ± 0.006 | –
x1 = 0.8504 | 0.812 ± 0.006 | – | 0.773 ± 0.005 | –
x1 = 0.8603 | – | 0.787 ± 0.011 | – | 0.677 ± 0.011
x1 = 0.9487 | 0.791 ± 0.006 | – | 0.756 ± 0.005 | –

CC(=O)OCCC(C)C + Clc1ccccc1
viscosity [mPa·s], 101 kPa
Details | 298.15 K | 303.15 K | 308.15 K | 313.15 K
x1 = 0.0458 | 0.75 ± 0.005 | – | 0.678 ± 0.005 | –
x1 = 0.0705 | – | 0.718 ± 0.011 | – | 0.634 ± 0.011
x1 = 0.1467 | – | 0.729 ± 0.011 | – | 0.643 ± 0.011
x1 = 0.1506 | 0.741 ± 0.005 | – | 0.676 ± 0.005 | –
x1 = 0.2271 | – | 0.74 ± 0.011 | – | 0.654 ± 0.011
x1 = 0.251 | 0.735 ± 0.005 | – | 0.677 ± 0.005 | –
x1 = 0.3141 | – | 0.751 ± 0.011 | – | 0.662 ± 0.011
x1 = 0.3515 | 0.732 ± 0.005 | – | 0.681 ± 0.005 | –
x1 = 0.4073 | – | 0.758 ± 0.011 | – | 0.669 ± 0.011
x1 = 0.4513 | 0.731 ± 0.005 | – | 0.684 ± 0.005 | –
x1 = 0.4998 | 0.732 ± 0.005 | – | 0.687 ± 0.005 | –
x1 = 0.5006 | – | 0.767 ± 0.011 | – | 0.675 ± 0.011
x1 = 0.5511 | 0.734 ± 0.005 | – | 0.691 ± 0.005 | –
x1 = 0.6085 | – | 0.768 ± 0.011 | – | 0.674 ± 0.011
x1 = 0.6517 | 0.739 ± 0.005 | – | 0.699 ± 0.005 | –
x1 = 0.728 | – | 0.766 ± 0.011 | – | 0.671 ± 0.011
x1 = 0.7519 | 0.747 ± 0.005 | – | 0.71 ± 0.005 | –
x1 = 0.8507 | 0.758 ± 0.005 | – | 0.723 ± 0.005 | –
x1 = 0.8573 | – | 0.758 ± 0.011 | – | 0.661 ± 0.011
x1 = 0.9448 | 0.772 ± 0.005 | – | 0.737 ± 0.005 | –

C=C(C)C(=O)OCc1ccccc1 + O=C1CCCCC1
viscosity [mPa·s], 101 kPa
Details | x2 = 0.1 | x2 = 0.1999 | x2 = 0.3 | x2 = 0.3999 | x2 = 0.5 | x2 = 0.6 | x2 = 0.7 | x2 = 0.8 | x2 = 0.9
298.15 K | 2.208 ± 0.054 | 2.141 ± 0.052 | 2.079 ± 0.05 | 2.038 ± 0.049 | 2.002 ± 0.047 | 1.972 ± 0.046 | 1.95 ± 0.046 | 1.943 ± 0.045 | 1.934 ± 0.045
308.15 K | 1.816 ± 0.045 | 1.765 ± 0.043 | 1.718 ± 0.042 | 1.687 ± 0.04 | 1.656 ± 0.039 | 1.632 ± 0.039 | 1.617 ± 0.038 | 1.602 ± 0.037 | 1.589 ± 0.037
318.15 K | 1.519 ± 0.038 | 1.484 ± 0.036 | 1.447 ± 0.035 | 1.422 ± 0.034 | 1.398 ± 0.033 | 1.383 ± 0.033 | 1.369 ± 0.032 | 1.356 ± 0.032 | 1.348 ± 0.031

CCCC(=O)[O-].[NH3+]CCO + CCO
viscosity [mPa·s], 101 kPa
Details | x1 = 0.0158 | x2 = 0.7685 | x2 = 0.8306 | x2 = 0.8824 | x2 = 0.9289 | x2 = 0.9483 | x2 = 0.9671
293.15 K | 1.608 ± 0.074 | 15.79 ± 0.83 | 8.436 ± 0.56 | 4.968 ± 0.28 | 2.91 ± 0.15 | 2.364 ± 0.11 | 1.944 ± 0.091
298.15 K | 1.458 ± 0.067 | 13.23 ± 0.71 | 7.272 ± 0.37 | 4.398 ± 0.21 | 2.598 ± 0.12 | 2.148 ± 0.1 | 1.752 ± 0.081
303.15 K | 1.35 ± 0.061 | 11.24 ± 0.61 | 6.33 ± 0.27 | 3.882 ± 0.17 | 2.34 ± 0.1 | 1.92 ± 0.089 | 1.602 ± 0.072

CCOP(OCC)OCC + N#Cc1ccccc1
298.15 K, 101 kPa
Details | viscosity [mPa·s]
x1 = 0.2 | 1.089 ± 0.012
x1 = 0.4 | 0.963 ± 0.012
x1 = 0.6 | 0.848 ± 0.012
x1 = 0.8 | 0.781 ± 0.012

CC(=O)OCCC(C)C + Cc1ccccc1
viscosity [mPa·s], 101 kPa
Details | 298.15 K | 308.15 K
x1 = 0.0474 | 0.555 ± 0.005 | 0.505 ± 0.004
x1 = 0.1513 | 0.567 ± 0.005 | 0.522 ± 0.004
x1 = 0.2512 | 0.581 ± 0.005 | 0.54 ± 0.005
x1 = 0.3494 | 0.598 ± 0.005 | 0.56 ± 0.005
x1 = 0.4458 | 0.616 ± 0.005 | 0.581 ± 0.005
x1 = 0.4978 | 0.627 ± 0.005 | 0.593 ± 0.005
x1 = 0.5497 | 0.639 ± 0.005 | 0.606 ± 0.005
x1 = 0.649 | 0.664 ± 0.005 | 0.632 ± 0.005
x1 = 0.7499 | 0.692 ± 0.005 | 0.661 ± 0.005
x1 = 0.855 | 0.726 ± 0.005 | 0.695 ± 0.005
x1 = 0.9448 | 0.759 ± 0.005 | 0.726 ± 0.005

CCOP(OCC)OCC + c1ccncc1
298.15 K, 101 kPa
Details | viscosity [mPa·s]
x1 = 0.2 | 0.792 ± 0.011
x1 = 0.4 | 0.76 ± 0.011
x1 = 0.6 | 0.738 ± 0.012
x1 = 0.8 | 0.707 ± 0.012
